“And” between values parts separate entries of the source, which are not always exact repeats. Equal entries are not always repeated.
Legend:
[1] = tested on: cells derived from infantile Batten disease (INCL or CLN1 deficient); assay: JC-1 mitochondrial membrane potential assay of etoposide-induced apoptosis, INCL cells; assay type: cell-based, human; settings: for percentage of cells showing J-aggregates: two patient cell lines, JC-1 stain
Experimental: (§1) Batten disease-derived cell lines were tested for their susceptibility to apoptosis induced by etoposide and whether flupirtine had any protective effect against apoptosis. Cells derived from infantile Batten disease (INCL or CLN1 deficient), cells derived from late infantile Batten disease (LINCL or CLN2 deficient), and cells derived from juvenile Batten disease (JNCL or CLN3 deficient) received an 18 hour incubation in 30 μM etoposide with and without a pre-treatment with 20 μM flupirtine. As a control, cells were also left untreated. Cells were then stained with JC-1 fluorescent stain, which is a mitochondrial membrane potential-sensitive dye. When cells are alive, the mitochondrial potential is maintained and the mitochondria appear green. At the commitment point of apoptosis, proapoptotic agents like etopside cause a drop in mitochondrial membrane potential and the mitochondria appear yellow-red due to the formation of J-aggregates.
(§2) Cell counts were conducted for to determine the percentage of cells showing J-aggregates (TABLE 1).
(§3) The numbers of cells showing J-aggregates indicates the number of cells that are apoptosis-ready but are still viable.

[2] = tested on: cells derived from juvenile Batten disease (JNCL or CLN3 deficient); assay: JC-1 mitochondrial membrane potential assay of etoposide-induced apoptosis, JNCL cells; assay type: cell-based, human
Experimental: as §1, §2, §3

[3] = tested on: cells derived from late infantile Batten disease (LINCL or CLN2 deficient); assay: JC-1 mitochondrial membrane potential assay of etoposide-induced apoptosis, LINCL cells; assay type: cell-based, human; settings: for percentage of cells showing J-aggregates: two patient cell lines, JC-1 stain
Experimental: as §1, §2, §3

[4] = adults and children, chronically for over 12 months; cited from earlier work
[5] = tested on: Costa Rican Batten disease-derived fibroblasts (CLN6 deficient); assay: Protection against etoposide-induced apoptosis, Costa Rican Batten disease cells; assay type: cell-based, human; settings: pretreatment with flupirtine (FIG. 4)
Experimental: Graph represents number of living cells after treatments indicated.
Cells derived from Costa Rican Batten disease (CLN6 deficient) were also tested for their response to etoposide. The CLN6 gene remains uncharacterized, though linked to chromosome 15.

[6] = tested on: retinal pigment epithelial cells and neuronal cells in culture; settings: cited from earlier work
[7] = tested on: hNT neurons (human post-mitotic, fully-differentiated neurons); assay: Etoposide-induced apoptosis in differentiated hNT neurons; assay type: cell-based; settings: pre-treatment with 10 μM flupirtine, 20 μM etoposide 18 hour (FIG. 5)
Experimental: Cells were visualized by fluorescent microscopy.
Finally, human post-mitotic neuronal cells were tested for thier response to flupirtine and etoposide-induced apoptosis. NT2 cells were treated with retinoic acid, then mitotic inhibitors for 6 weeks to become hNT neurons that were fully differentiated. Next, the hNT neurons received an 18 hour incubation in 20 μM etoposide with and without a pre-treatment with 10 μM flupirtine.

[8] = tested on: stroke in rats; settings: rats pretreated with flupirtine; cited from earlier work
[9] = 30 μM etoposide alone, 18 hour incubation
[10] = pre-treatment with 20 μM flupirtine, then 30 μM etoposide 18 hour

COc1cc([C@@H]2c3cc4c(cc3[C@@H](O[C@@H]3O[C@@H]5CO[C@@H](C)O[C@H]5[C@H](O)[C@H]3O)[C@H]3COC(=O)[C@H]23)OCO4)cc(OC)c1O [Etoposide]
yellow-red J-aggregates seen by fluorescent microscopy ([1]; etoposide alone (FIG. 3A)): many yellow-red aggregates
percentage of cells showing J-aggregates [1, 9]: 61% and 51%
yellow-red J-aggregates seen by fluorescent microscopy ([2]; etoposide alone (FIG. 3C)): many yellow-red aggregates
percentage of cells showing J-aggregates ([2]; two patient cell lines, 30 μM etoposide alone, 18 hour incubation, JC-1 stain): 58.4% and 64%
yellow-red J-aggregates seen by fluorescent microscopy ([3]; etoposide alone (FIG. 3B)): many yellow-red aggregates
percentage of cells showing J-aggregates [3, 9]: 100% and 96%

CCOC(=O)Nc1ccc(NCc2ccc(F)cc2)nc1N [Flupirtine, 2-amino-3-ethoxycarbonylamino-6-(p-fluorobenzylamino)-pyridine]
yellow-red J-aggregates seen by fluorescent microscopy ([1]; flupirtine pretreated, then etoposide (FIG. 3A)): no aggregates
percentage of cells showing J-aggregates [1, 10]: 6.7% and 10.8%
tolerability in chronic use [4]: without undue side effect or addiction
protection from etoposide-induced apoptosis (number of living cells) [5]: protected from etoposide-induced apoptosis
yellow-red J-aggregates seen by fluorescent microscopy ([2]; flupirtine pretreated, then etoposide (FIG. 3C)): no aggregates
effect on apoptosis [6]: counteract apoptosis
protection afforded by Flupirtine ([3]; J-aggregate counts, etoposide vs etoposide + flupirtine): almost complete
yellow-red J-aggregates seen by fluorescent microscopy ([3]; flupirtine pretreated, then etoposide (FIG. 3B)): no aggregates
percentage of cells showing J-aggregates [3, 10]: 0% and 1.8%
effect on etoposide-induced apoptosis [7]: completely blocked etoposide-induced apoptosis
area of ischemia induced by stroke [8]: reduce the area of ischemia

Reference: patent US6821995B1, “Method of treating batten disease” (priority 1999, dated 2004)
